31 molecules from the Deep4Chem optical property database can be followed below.

SMILES strings stand for the structures.

This series in a line: solvent given as SMILES.

Molecule `CCCCCCCCCCCCCCCCN(CCCCCCCCCCCCCCCC)c1ccc(/C=C/c2cc[n+](Cc3cc(C[n+]4ccc(/C=C/c5ccc(N(CCCCCCCCCCCCCCCC)CCCCCCCCCCCCCCCC)cc5)cc4)cc(C[n+]4ccc(/C=C/c5ccc(N(CCCCCCCCCCCCCCCC)CCCCCCCCCCCCCCCC)cc5)cc4)c3)cc2)cc1` came in with an absorption maximum (in C1COCCO1) of 482 nm; an absorption maximum (in CC(C)O) of 506 nm; an absorption maximum (in CCCCCC) of 481 nm; an absorption maximum (in CCCCCCCCO) of 498 nm; an absorption maximum (in CCCCO) of 507 nm; an absorption maximum (in CCCO) of 508 nm. Further, the absorption maximum came to 508 nm (in CCO); 509 nm (in CO); 486 nm (in CS(C)=O); 483 nm (in Cc1ccc(C)cc1); 483 nm (in Cc1ccccc1); 514 nm (in ClC(Cl)Cl). The absorption maximum (in ClCCl) stood at 516 nm and the absorption maximum (in c1ccccc1) was 484 nm.
Where the note is “in CCCCCC”, `Cc1cc(C)c(B(c2c(C)cc(C)cc2C)c2cc3cccc4c(B(c5c(C)cc(C)cc5C)c5c(C)cc(C)cc5C)cc5cccc2c5c34)c(C)c1` came in with an absorption maximum of 392 nm.
For `COC(=O)C(Cc1ccc2oc(-c3ccc(N(C)C)cc3)nc2c1)NC(=O)OC(C)(C)C` (configuration not stated), the absorption maximum reads like this: (in C1CCCCC1) 335.1 nm; (in C1CCOC1) 341.8 nm; (in C1COCCO1) 340.8 nm; (in CC1CCCO1) 338.9 nm; (in CC1COC(=O)O1) 345.1 nm; (in CC#N) 343.39 nm. The absorption maximum is on record as 343.1 nm (in CC(C)=O); 333 nm (in CC(C)CC(C)(C)C); 344.49 nm (in CC(C)CO); 343.9 nm (in CC(C)O); 339.5 nm (in CC(C)OC(C)C); 349.5 nm (in CC(O)CO). For the same molecule, the absorption maximum is, setting by setting: (in CCC(C)CC) 333 nm; (in CCCCC) 332.9 nm; (in CCCCCC) 333.6 nm; (in CCCCCCCCC) 334.9 nm; (in CCCCCCCCCC) 334.9 nm; (in CCCCCCCO) 345.7 nm. Besides, the absorption maximum (in CCCCCCO) stood at 345.6 nm; the absorption maximum (in CCCCCO) is on record as 342.7 nm; the absorption maximum (in CCCCO) was found to be 345.9 nm; the absorption maximum (in CCO) is on record as 346.6 nm; the absorption maximum (in CCOC(C)=O) was found to be 339.7 nm; the absorption maximum (in CCOCC) came to 338.2 nm. This molecule also displayed an absorption maximum (in CN(C)C=O) of 346.5 nm; an absorption maximum (in CO) of 346.5 nm; an absorption maximum (in COCCOC) of 343.9 nm; an absorption maximum (in CS(C)=O) of 348.5 nm; an absorption maximum (in Cc1ccccc1) of 342 nm; an absorption maximum (in Cc1ccccc1C) of 341.4 nm. For the same molecule, the absorption maximum (in ClC(Cl)Cl) worked out at 344.6 nm; the absorption maximum (in ClCCl) is 344.49 nm; the absorption maximum (in NC=O) was 349.41 nm; the absorption maximum (in OC1CCCCC1) is 346.5 nm; the absorption maximum (in OCCO) amounted to 351.9 nm; the absorption maximum (in c1ccccc1) was determined as 342.99 nm.
In turn, `CN(C)c1ccc(C#Cc2cc(C#Cc3ccc(N(C)C)cc3)c3ccc4c(C#Cc5ccc(N(C)C)cc5)cc(C#Cc5ccc(N(C)C)cc5)c5ccc2c3c54)cc1` registered an absorption maximum (in ClCCl) of 508 nm.
`COC(=O)C[C@H](Cc1c[nH]c2ccccc12)NC(=O)[C@H](CC(=O)N[C@@H](CC1=CCc2ccccc21)C(=O)OC)NC(=O)[C@H](Cc1c[nH]c2ccccc12)NC(=O)OC(C)(C)C` registered an absorption maximum (in CC#N) of 280 nm, an absorption maximum (in CCOC(C)=O) of 280 nm and an absorption maximum (in CO) of 280 nm.
Molecule `CCOC(=O)CCCCCn1c2ccc(F)cc2c(=O)c2cc3c(cc21)c(=O)c1cc(F)ccc1n3CCCCCC(=O)OCC` had an absorption maximum (in CO) of 540 nm.
On the same count and under the same terms, as for `CCN(CC)c1ccc(C2=C3C(C)=CC(/C=C/c4ccc(OCCCN=[N+]=[N-])cc4)=[N+]3[B-](F)(F)n3c(C)cc(C)c32)cc1`, the figure is 570 nm.
Take `CCCCCCOc1ccc(N(c2ccc(OCCCCCC)cc2)c2ccc(-c3sc(-c4ccc(N(c5ccc(OCCCCCC)cc5)c5ccc(OCCCCCC)cc5)cc4)c4nc(CC)c(CC)nc34)cc2)cc1`: the absorption maximum (in ClCCl) is 532 nm.
As to `CN(C)c1ccc2cc3c(cc2c1)OCCN=C3`, the absorption maximum (in C1CCOC1) amounted to 353 nm; the absorption maximum (in CC#N) came to 456 nm; the absorption maximum (in CC(C)O) turned out to be 362 nm; the absorption maximum (in CCOC(C)=O) came to 354 nm; the absorption maximum (in CN(C)C=O) was determined as 362 nm; the absorption maximum (in CS(C)=O) was 359 nm. Also, the absorption maximum runs as follows: (in Cc1ccccc1) 355 nm; (in ClCCl) 450 nm; (in O) 451 nm.
Take `BrC1=CN2C[n+]3cc(Br)c4ccccc4c3N=C2c2ccccc21`: the absorption maximum (in CO) worked out at 457 nm.
`COc1ccc(OC)cc1` returned an absorption maximum (in C1CCCCC1) of 286.2 nm.
In turn, `COc1cccc2cc(C)c3c4ccccc4n(C)c3c12` returned an absorption maximum (in ClCCl) of 370 nm.
For the molecule `c1ccc(-c2c3c(c(-c4ccccc4)c4cc5ccccc5cc24)Cc2c(c(-c4ccccc4)c4cc5ccccc5cc4c2-c2ccccc2)C3)cc1`, the absorption maximum is, setting by setting: (in CC#N) 389 nm; (in CCCCCC) 388 nm; (in CO) 388 nm; (in Cc1ccccc1) 391 nm; (in ClCCl) 392 nm.
As to `CN(C)c1ccc(/C=C/c2cnc3ccccc3n2)cc1`, the absorption maximum runs as follows: (in C1CCOC1) 424 nm; (in CC#N) 424 nm; (in CCCCCCC) 418 nm; (in CS(C)=O) 435 nm; (in ClCCl) 427 nm.
As to `CC1=CS[C@]2(C)C1=C1C(=C3C(C)=C(c4ccc(-c5nc(-c6ccccc6)c(-c6ccccc6)[nH]5)cc4)S[C@]32C)C(F)(F)C(F)(F)C1(F)F`, the absorption maximum (in C1CCOC1) is recorded as 565 nm.
Take `CN(C)c1ccc2cc3ccc(=[N+](C)C)cc-3oc2c1`: the absorption maximum is, setting by setting: (in CCO) 547 nm; (in O) 548 nm.
Regarding `COc1ccc2cc3c(C)cc(=O)oc3cc2c1`, the absorption maximum (in CC#N) amounted to 340 nm; the absorption maximum (in CCCCCC) amounted to 337 nm; the absorption maximum (in CCO) is 343 nm; the absorption maximum (in CCOC(C)=O) stood at 340 nm; the absorption maximum (in CO) was determined as 343 nm; the absorption maximum (in OCC(F)(F)F) was 344 nm.
Under “in ClCCl”, `Clc1nnc(Oc2ccc(N(c3ccccc3)c3ccccc3)cc2)nn1` showed an absorption maximum of 525 nm.
The same measure, in the same setting: in the case of `CCOC(=O)c1c(-c2cc3ccc(OC)cc3oc2=O)nn(-c2cccc(C)c2)c1C(=O)OCC` it was 337 nm.
For `CC1(C)C(/C=C/C2=C(Cl)C(=C/C=C3/N(Cc4ccc(C(=O)O)cc4)c4ccccc4C3(C)C)/CCC2)=[N+](Cc2ccc(C(=O)O)cc2)c2ccccc21`, the absorption maximum (in CO) was 786 nm.
The molecule `CCOC(=O)c1c(-c2cc3ccccc3oc2=O)nn(-c2cccc(C)c2)c1C(=O)OCC` returned an absorption maximum (in ClCCl) of 321 nm.
For `CCN1\C(=C/C=C/C=C/C2=[N+](CC)c3ccc4cc(Br)ccc4c3C2(C)C)C(C)(C)c2c1ccc1cc(Br)ccc21`, the absorption maximum runs as follows: (in C1CCOC1) 683 nm; (in CC#N) 680 nm; (in CC(C)=O) 682 nm; (in CCO) 685 nm; (in CN(C)C=O) 686 nm; (in CO) 681 nm. Moreover, the absorption maximum runs as follows: (in CS(C)=O) 689 nm; (in ClCCl) 697 nm.
Molecule `CC1=C(C#Cc2ccc([Si](c3ccccc3)(c3ccccc3)c3ccccc3)cc2)C(C)=[N+]2C1=C(c1ccccc1)c1c(C)c(C#Cc3ccc([Si](c4ccccc4)(c4ccccc4)c4ccccc4)cc3)c(C)n1[B-]2(F)F` gave an absorption maximum (in ClCCl) of 575 nm.
`CN1CCN(CCCN2c3ccccc3Sc3ccc(C(F)(F)F)cc32)CC1`: the absorption maximum turned out to be 310 nm (in CC#N), 310 nm (in CO) and 308 nm (in O).
In the case of `COc1ccc(-c2nc3c(c4c2-c2ccc(C#N)cc2CC4)-c2ccc(C#N)cc2CC3)cc1`, the absorption maximum amounted to 332 nm (in C1CCOC1); 329 nm (in CC#N); 336 nm (in CCCCCC); 324 nm (in CCOC(C)=O); 326 nm (in CO); 331 nm (in CS(C)=O). In addition, the absorption maximum runs as follows: (in Cc1ccccc1) 334 nm; (in ClCCl) 333 nm.
In the case of `CCc1c(C)c2n(c1C)[B-](F)(F)[N+]1=C(c3ccc[nH]3)c3ccccc3C1=C2C`, the absorption maximum reads like this: (in C1CCOC1) 604 nm; (in CC#N) 597 nm; (in CCCCCC) 604 nm; (in CO) 599 nm; (in Cc1ccccc1) 609 nm; (in ClCCl) 605 nm.
Consider `COc1cc(OC)cc(C2=C3C(C)=C(I)C(C)=[N+]3[B-](F)(F)n3c(/C=C/c4c[nH]c5ccccc45)c(I)c(C)c32)c1`, for which the absorption maximum by setting is: (in C1CCOC1) 627 nm; (in CS(C)=O) 636 nm; (in ClCCl) 618 nm.
The molecule `COc1ccc(-c2ccc(-c3ccc(OC)cc3)c3nc(-c4ccccc4)c(-c4ccccc4)nc23)cc1` gave an absorption maximum (in ClC(Cl)Cl) of 366 nm.
Turning to `O=C([O-])c1ccc(C(=O)[O-])c2cc3ccccc3cc12`, the absorption maximum (in CN(C)C=O) turned out to be 396 nm.
As for `CN(C)c1ccc2c(-c3ccc(N)cc3C(=O)[O-])c3ccc(=[N+](C)C)cc-3oc2c1`, the absorption maximum by setting is: (in CCO) 533 nm; (in O) 544 nm.
Regarding `Cc1ccc2c(nc3c(=O)n(C)c(=O)nc-3n2C)c1C`, where the note is “in CC#N”, the absorption maximum is 448 nm.
